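Test compounds were applied to cells in 96-well plates for 48 hours at 5 doses. Abbreviation: GI50, concentration required for 50% inhibition of growth.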 Activity calls are given as the source filed them. Cut-off read from the data, not from the text of the source: active = GI50 up to about 1.1 µM and inactive = higher.
Columns and labels:
Experiment in all cases: NCI anticancer screen, dose series, 48 h
[1] = test system: 786-0
[2] = test system: A498
[3] = test system: A549
[4] = test system: ACHN
[5] = test system: BT-549
[6] = test system: CAKI-1
[7] = test system: CCRF-CEM
[8] = test system: COLO 205
[9] = test system: DU-145
[10] = test system: EKVX
[11] = test system: HCC 2998
[12] = test system: HCT-116
[13] = test system: HCT-15
[14] = test system: HL-60
[15] = test system: HOP-62
[16] = test system: HOP-92
[17] = test system: HT-29
[18] = test system: IGROV-1
[19] = test system: K562
[20] = test system: KM12
[21] = test system: LOX IMVI
[22] = test system: M14
[23] = test system: MCF7
[24] = test system: MDA-MB-231
[25] = test system: MDA-MB-435
[26] = test system: MDA-N
[27] = test system: MOLT-4
[28] = test system: Malme-3M
[29] = test system: NCI-H226
[30] = test system: NCI-H23
[31] = test system: NCI-H460
[32] = test system: NCI/ADR-RES
[33] = test system: OVCAR-3
[34] = test system: OVCAR-4
[35] = test system: OVCAR-5
[36] = test system: OVCAR-8
[37] = test system: PC-3
[38] = test system: RPMI-8226
[39] = test system: RXF 393
[40] = test system: SF-268
[41] = test system: SF-295
[42] = test system: SF-539
[43] = test system: SK-MEL-28
[44] = test system: SK-MEL-2
[45] = test system: SK-MEL-5
[46] = test system: SN12C
[47] = test system: SNB-19
[48] = test system: SNB-75
[49] = test system: SR
[50] = test system: SW-620
[51] = test system: TK-10
[52] = test system: U-251
[53] = test system: UACC-257
[54] = test system: UO-31
[55] = test system: Hs-578T
[56] = test system: SK-OV-3
[57] = test system: T47D
[58] = test system: UACC-62
[59] = test system: NCI-H522

O=C=NCCCCCCN1C(=O)N2C(c3ccccc3)N(CCCCCCN=C=O)C(=O)N2C1c1ccccc1 (centres undefined)
GI50 [1]: > 100 µM (inactive) | GI50 [2]: > 100 µM (inactive) | GI50 [3]: > 100 µM (inactive) | GI50 [4]: > 100 µM (inactive) | GI50 [5]: > 100 µM (inactive) | GI50 [6]: > 100 µM (inactive) | GI50 [7]: 79.3 µM (inactive) | GI50 [8]: > 100 µM (inactive) | GI50 [9]: > 100 µM (inactive) | GI50 [10]: > 100 µM (inactive) | GI50 [11]: > 100 µM (inactive) | GI50 [12]: > 100 µM (inactive) | GI50 [13]: > 100 µM | GI50 [14]: > 100 µM (inactive) | GI50 [15]: > 100 µM (inactive) | GI50 [16]: > 100 µM (inactive) | GI50 [17]: > 100 µM (inactive) | GI50 [18]: > 100 µM (inactive) | GI50 [19]: > 100 µM (inactive) | GI50 [20]: > 100 µM (inactive) | GI50 [21]: > 100 µM (inactive) | GI50 [22]: > 100 µM (inactive) | GI50 [23]: > 100 µM (inactive) | GI50 [24]: > 100 µM (inactive) | GI50 [25]: > 100 µM (inactive) | GI50 [26]: > 100 µM (inactive) | GI50 [27]: 62.1 µM (inactive) | GI50 [28]: > 100 µM (inactive) | GI50 [29]: > 100 µM (inactive) | GI50 [30]: > 100 µM (inactive) | GI50 [31]: > 100 µM (inactive) | GI50 [32]: > 100 µM (inactive) | GI50 [33]: > 100 µM (inactive) | GI50 [34]: > 100 µM (inactive) | GI50 [35]: > 100 µM (inactive) | GI50 [36]: > 100 µM (inactive) | GI50 [37]: > 100 µM (inactive) | GI50 [38]: 55 µM (inactive) | GI50 [39]: > 100 µM (inactive) | GI50 [40]: > 100 µM (inactive) | GI50 [41]: > 100 µM (inactive) | GI50 [42]: > 100 µM (inactive) | GI50 [43]: > 100 µM (inactive) | GI50 [44]: > 100 µM (inactive) | GI50 [45]: > 100 µM (inactive) | GI50 [46]: > 100 µM (inactive) | GI50 [47]: > 100 µM (inactive) | GI50 [48]: > 100 µM (inactive) | GI50 [49]: 65.2 µM (inactive) | GI50 [50]: > 100 µM (inactive) | GI50 [51]: > 100 µM (inactive) | GI50 [52]: > 100 µM (inactive) | GI50 [53]: > 100 µM (inactive) | GI50 [54]: > 100 µM (inactive)

C=CC(C)(C)C1(CC(OC)OC)C(=O)N(C)c2ccccc21 (centres undefined)
GI50 [1]: > 25 µM (inactive) | GI50 [2]: > 25 µM (inactive) | GI50 [3]: > 25 µM (inactive) | GI50 [4]: > 25 µM (inactive) | GI50 [6]: > 25 µM (inactive) | GI50 [7]: > 25 µM (inactive) | GI50 [8]: > 25 µM (inactive) | GI50 [9]: > 25 µM (inactive) | GI50 [10]: > 25 µM (inactive) | GI50 [11]: > 25 µM (inactive) | GI50 [12]: > 25 µM (inactive) | GI50 [13]: > 25 µM | GI50 [14]: > 25 µM (inactive) | GI50 [15]: > 25 µM (inactive) | GI50 [16]: > 25 µM (inactive) | GI50 [17]: > 25 µM (inactive) | GI50 [55]: > 25 µM (inactive) | GI50 [19]: > 25 µM (inactive) | GI50 [20]: > 25 µM (inactive) | GI50 [21]: > 25 µM (inactive) | GI50 [22]: > 25 µM (inactive) | GI50 [23]: > 25 µM (inactive) | GI50 [24]: > 25 µM (inactive) | GI50 [25]: > 25 µM (inactive) | GI50 [26]: > 25 µM (inactive) | GI50 [29]: > 25 µM (inactive) | GI50 [30]: > 25 µM (inactive) | GI50 [31]: > 25 µM (inactive) | GI50 [32]: > 25 µM (inactive) | GI50 [33]: > 25 µM (inactive) | GI50 [34]: > 25 µM (inactive) | GI50 [35]: > 25 µM (inactive) | GI50 [36]: > 25 µM (inactive) | GI50 [37]: > 25 µM (inactive) | GI50 [38]: > 25 µM (inactive) | GI50 [39]: > 25 µM (inactive) | GI50 [40]: > 25 µM (inactive) | GI50 [41]: > 25 µM (inactive) | GI50 [43]: > 25 µM (inactive) | GI50 [44]: > 25 µM (inactive) | GI50 [45]: > 25 µM (inactive) | GI50 [56]: > 25 µM (inactive) | GI50 [46]: > 25 µM (inactive) | GI50 [47]: > 25 µM (inactive) | GI50 [48]: > 25 µM (inactive) | GI50 [49]: > 25 µM (inactive) | GI50 [50]: > 25 µM (inactive) | GI50 [57]: > 25 µM (inactive) | GI50 [52]: > 25 µM (inactive) | GI50 [53]: > 25 µM (inactive) | GI50 [58]: > 25 µM (inactive) | GI50 [54]: > 25 µM (inactive)

COCCOC(=O)NCn1cc(-c2ccccc2)nn1
GI50 [1]: > 100 µM (inactive) | GI50 [3]: > 100 µM (inactive) | GI50 [4]: > 100 µM (inactive) | GI50 [5]: > 100 µM (inactive) | GI50 [6]: > 100 µM (inactive) | GI50 [7]: > 100 µM (inactive) | GI50 [8]: > 100 µM (inactive) | GI50 [9]: > 100 µM (inactive) | GI50 [10]: > 100 µM (inactive) | GI50 [11]: > 100 µM (inactive) | GI50 [12]: > 100 µM (inactive) | GI50 [13]: > 100 µM | GI50 [14]: > 100 µM (inactive) | GI50 [15]: > 100 µM (inactive) | GI50 [16]: > 100 µM (inactive) | GI50 [17]: > 100 µM (inactive) | GI50 [18]: > 100 µM (inactive) | GI50 [19]: > 100 µM (inactive) | GI50 [20]: > 100 µM (inactive) | GI50 [21]: > 100 µM (inactive) | GI50 [22]: > 100 µM (inactive) | GI50 [23]: > 100 µM (inactive) | GI50 [24]: > 100 µM (inactive) | GI50 [25]: > 100 µM (inactive) | GI50 [27]: > 100 µM (inactive) | GI50 [28]: > 100 µM (inactive) | GI50 [29]: 13.8 µM (inactive) | GI50 [30]: > 100 µM (inactive) | GI50 [31]: > 100 µM (inactive) | GI50 [59]: > 100 µM (inactive) | GI50 [32]: > 100 µM (inactive) | GI50 [34]: > 100 µM (inactive) | GI50 [35]: > 100 µM (inactive) | GI50 [36]: > 100 µM (inactive) | GI50 [37]: > 100 µM (inactive) | GI50 [38]: > 100 µM (inactive) | GI50 [41]: > 100 µM (inactive) | GI50 [42]: > 100 µM (inactive) | GI50 [43]: > 100 µM (inactive) | GI50 [44]: > 100 µM (inactive) | GI50 [45]: > 100 µM (inactive) | GI50 [46]: > 100 µM (inactive) | GI50 [47]: > 100 µM (inactive) | GI50 [49]: > 100 µM (inactive) | GI50 [50]: > 100 µM (inactive) | GI50 [51]: > 100 µM (inactive) | GI50 [52]: > 100 µM (inactive) | GI50 [53]: > 100 µM (inactive)
